Blank lines part the entries; values can stand above or below the molecule they belong to.
Legend:
[1] = molecular target: T1, human recombinant adrenergic α2B receptor (Homo sapiens, UniProt P18089); assay: Radioligand binding, adrenergic α2B ([3H]Rauwolscine); conditions: for Percentage inhibition of ligand binding, Adrenergic α2B (0.03 μM): compound at 0.03 μM, [3H]Rauwolscine, repeat datapoints each shown; for Percentage inhibition of ligand binding, Adrenergic α2B (0.03 μM) / Percentage inhibition of ligand binding, Adrenergic α2B: 0.03 µM
T1 construct: expressed in transfected cells; host or cells: CHO-K1
T1 sequence (P18089 1-450): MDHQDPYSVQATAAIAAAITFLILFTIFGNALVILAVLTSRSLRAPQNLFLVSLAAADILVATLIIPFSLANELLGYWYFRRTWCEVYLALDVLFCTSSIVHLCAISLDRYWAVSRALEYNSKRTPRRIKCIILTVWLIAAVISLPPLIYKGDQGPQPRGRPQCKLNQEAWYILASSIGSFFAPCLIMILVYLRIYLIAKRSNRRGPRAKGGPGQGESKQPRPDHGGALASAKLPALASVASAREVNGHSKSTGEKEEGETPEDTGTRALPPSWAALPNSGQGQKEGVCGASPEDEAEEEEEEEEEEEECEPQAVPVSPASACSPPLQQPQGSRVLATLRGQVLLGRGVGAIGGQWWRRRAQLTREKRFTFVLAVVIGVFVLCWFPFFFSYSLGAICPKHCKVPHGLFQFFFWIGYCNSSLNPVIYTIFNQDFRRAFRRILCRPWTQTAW
In short: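 Readout: percent inhibition of specific [3H]Rauwolscine binding, measured by filtration and counting. Conditions: CHO-K1 cell-expressed receptor, 2.5 nM radioligand, 60 min, 25° C, Tris-HCl pH 7.4 buffer with MgCl2, EDTA, BSA. Non-specific binding: 10 μM Prazosin.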

[2] = molecular target: T2, human recombinant adrenergic α2A receptor (Homo sapiens, UniProt P08913); assay: Radioligand binding, adrenergic α2A ([3H]MK-912); conditions: 0.1 µM; for Percentage inhibition of ligand binding, Adrenergic α2A (0.1 μM): compound at 0.1 μM, [3H]MK-912, repeat datapoints each shown; for Percentage inhibition of ligand binding, Adrenergic α2A: 0.1 μM compound
T2 construct: expressed in transfected cells; host or cells: insect Sf9 cells
T2 sequence (P08913 1-465): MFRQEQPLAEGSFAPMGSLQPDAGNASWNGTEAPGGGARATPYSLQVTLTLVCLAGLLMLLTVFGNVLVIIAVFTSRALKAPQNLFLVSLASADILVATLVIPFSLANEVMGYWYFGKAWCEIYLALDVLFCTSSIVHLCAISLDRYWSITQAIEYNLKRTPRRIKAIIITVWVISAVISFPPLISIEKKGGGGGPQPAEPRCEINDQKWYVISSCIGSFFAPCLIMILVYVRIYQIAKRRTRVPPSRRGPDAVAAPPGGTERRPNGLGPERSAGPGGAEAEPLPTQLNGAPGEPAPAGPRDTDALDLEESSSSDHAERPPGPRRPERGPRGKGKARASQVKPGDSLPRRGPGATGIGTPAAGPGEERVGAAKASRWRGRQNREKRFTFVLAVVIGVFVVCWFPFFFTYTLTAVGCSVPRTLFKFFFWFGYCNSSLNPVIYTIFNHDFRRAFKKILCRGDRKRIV
In short: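 Sf9 membranes, 1 nM [3H]MK-912, 60 min, 25 °C, Tris-HCl pH 7.4/MgCl2/EDTA buffer. NSB: 10 μM WB-4101. Filtration, counting; % inhibition of specific binding.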

[3] = molecular target: T3, rat adrenergic α1B receptor (Rattus norvegicus, UniProt P15823); assay: Radioligand binding, adrenergic α1B ([3H]Prazosin); conditions: 0.1 µM; for Percentage inhibition of ligand binding, Adrenergic α1B (0.1 μM): compound at 0.1 μM, [3H]Prazosin, repeat datapoints each shown; for Percentage inhibition of ligand binding, Adrenergic α1B: 0.1 μM compound
T3 construct: rat adrenergic α1B receptor obtained from Wistar Rat liver; from tissue; host or cells: Wistar rat liver
T3 sequence (P15823 1-515): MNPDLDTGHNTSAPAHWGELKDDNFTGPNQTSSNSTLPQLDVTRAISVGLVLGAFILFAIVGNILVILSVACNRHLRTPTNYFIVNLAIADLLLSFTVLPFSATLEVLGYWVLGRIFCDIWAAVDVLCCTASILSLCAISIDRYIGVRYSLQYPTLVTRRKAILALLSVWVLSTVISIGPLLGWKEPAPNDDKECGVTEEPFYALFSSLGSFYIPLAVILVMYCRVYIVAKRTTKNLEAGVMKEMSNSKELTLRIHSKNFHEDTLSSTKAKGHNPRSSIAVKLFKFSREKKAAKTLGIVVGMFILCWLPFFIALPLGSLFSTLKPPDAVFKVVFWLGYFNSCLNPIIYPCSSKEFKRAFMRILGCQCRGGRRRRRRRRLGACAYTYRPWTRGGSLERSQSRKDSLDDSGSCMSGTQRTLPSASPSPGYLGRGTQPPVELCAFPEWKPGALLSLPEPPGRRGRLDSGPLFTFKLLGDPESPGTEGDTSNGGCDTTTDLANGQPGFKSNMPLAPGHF
In short: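 Specific binding, taken as total minus that remaining with 10 μM phentolamine, is measured after filtration and counting. Rat liver receptor preparation and 0.25 nM [3H]prazosin are incubated with compound in 50 mM Tris-HCl (pH 7.4, 0.5 mM EDTA) at 25° C for 60 min. Activity is reported as percent inhibition.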

Percentage inhibition of ligand binding, Adrenergic α2B (0.03 μM) [1]: 103%
Percentage inhibition of ligand binding, Adrenergic α2A (0.1 μM) [2]: 44%
Percentage inhibition of ligand binding, Adrenergic α1B (0.1 μM) [3]: 84%
SMILES: Cc1ccc2c(c1)c1c(n2CC(O)c2ccc(C)nc2)CCN2CCCC12 (single isomer, unassigned) [198b, 2-(9-methyl-1,2,3,4,5,10c-hexahydro-3a,6-diaza-cyclopenta[c]fluoren-6-yl)-1-(6-methyl-pyridin-3-yl)-ethanol]

Percentage inhibition of ligand binding, Adrenergic α2B (0.03 μM) [1]: 36%
Percentage inhibition of ligand binding, Adrenergic α2A (0.1 μM) [2]: 71%
Percentage inhibition of ligand binding, Adrenergic α1B (0.1 μM) [3]: 76%
SMILES: CCN1CCc2c(c3cc(C)ccc3n2CC(O)c2ccc(C)cc2)C1 (single isomer, unassigned) [203a]

Percentage inhibition of ligand binding, Adrenergic α2B (0.03 μM) [1]: 24%
Percentage inhibition of ligand binding, Adrenergic α2A (0.1 μM) [2]: 31%
Percentage inhibition of ligand binding, Adrenergic α1B (0.1 μM) [3]: 47%
SMILES: CCN1CCc2c(c3cc(C)ccc3n2CC(O)c2ccc(C)cc2)C1 (single isomer, unassigned) [203b]

The next lines start with the molecule.

SMILES: CC(=O)NC(Cn1c2c(c3cc(C)ccc31)CN(C)CC2)c1ccncc1 (single isomer, unassigned) [II-1a, N-(2-(1,2,3,4-tetrahydro-2,8-dimethylpyrido[4,3-b]indol-5-yl)-1-(pyridin-4-yl)ethyl)acetamide]
Percentage inhibition of ligand binding, Adrenergic α2B ([1]; 0.03 μM compound): 14%
Percentage inhibition of ligand binding, Adrenergic α2A [2]: 15%
Percentage inhibition of ligand binding, Adrenergic α1B [3]: 6%

SMILES: CC(=O)NC(Cn1c2c(c3cc(C)ccc31)CN(C)CC2)c1ccncc1 (single isomer, unassigned) [II-1b, N-(2-(1,2,3,4-tetrahydro-2,8-dimethylpyrido[4,3-b]indol-5-yl)-1-(pyridin-4-yl)ethyl)acetamide]
Percentage inhibition of ligand binding, Adrenergic α2B ([1]; 0.03 μM compound): 32%
Percentage inhibition of ligand binding, Adrenergic α2A [2]: 1%
Percentage inhibition of ligand binding, Adrenergic α1B [3]: −7%

SMILES: Cc1ccc2c(c1)c1c(n2CC(C)(c2cnccn2)N(C)C)CCN2CCCC12 (single isomer, unassigned) [II-6a, dimethyl-[1-methyl-2-(9-methyl-1,2,3,4,5,10c-hexahydro-3a,6-diaza-cyclopenta[c]fluoren-6-yl)-1-pyrazin-2-yl-ethyl]-amine]
inhibition at 0.03 µM ([1]; 0.03 μM compound, read-out: Percentage inhibition of ligand binding, Adrenergic α2B): 85%
Percentage inhibition of ligand binding, Adrenergic α2A [2]: 45%
Percentage inhibition of ligand binding, Adrenergic α1B [3]: 66%

SMILES: Cc1ccc2c(c1)c1c(n2CC(C)(c2cnccn2)N(C)C)CCN2CCCC12 (single isomer, unassigned) [II-6b, dimethyl-[1-methyl-2-(9-methyl-1,2,3,4,5,10c-hexahydro-3a,6-diaza-cyclopenta[c]fluoren-6-yl)-1-pyrazin-2-yl-ethyl]-amine]
Percentage inhibition of ligand binding, Adrenergic α2B ([1]; 0.03 μM compound): 102%
Percentage inhibition of ligand binding, Adrenergic α2A [2]: 81%
Percentage inhibition of ligand binding, Adrenergic α1B [3]: 91%

SMILES: Cc1ccc2c(c1)c1c(n2CC(N)c2ccc(F)cc2)CCN(C)C1 (single isomer, unassigned) [II-11a, 2-(2,8-dimethyl-3,4-dihydro-1H-pyrido[4,3-b]indol-5(2H)-yl)-1-(4-fluorophenyl)ethanamine]
Percentage inhibition of ligand binding, Adrenergic α2B ([1]; 0.03 μM compound): 53%
Percentage inhibition of ligand binding, Adrenergic α2A [2]: 22%
Percentage inhibition of ligand binding, Adrenergic α1B [3]: 9%

SMILES: Cc1ccc2c(c1)c1c(n2CC(N)c2ccc(F)cc2)CCN(C)C1 (single isomer, unassigned) [II-11b, 2-(2,8-dimethyl-3,4-dihydro-1H-pyrido[4,3-b]indol-5(2H)-yl)-1-(4-fluorophenyl)ethanamine]
Percentage inhibition of ligand binding, Adrenergic α2B ([1]; 0.03 μM compound): 89%
Percentage inhibition of ligand binding, Adrenergic α2A [2]: 43%
Percentage inhibition of ligand binding, Adrenergic α1B [3]: 76%

SMILES: CNC(Cn1c2c(c3cc(C)ccc31)CN(C)CC2)c1ccc(F)cc1 (single isomer, unassigned) [II-12a, 2-(2,8-dimethyl-3,4-dihydro-1H-pyrido[4,3-b]indol-5(2H)-yl)-1-(4-fluorophenyl)-N-methyl ethanamine]
Percentage inhibition of ligand binding, Adrenergic α2B ([1]; 0.03 μM compound): 89%
Percentage inhibition of ligand binding, Adrenergic α2A [2]: 25%
Percentage inhibition of ligand binding, Adrenergic α1B [3]: 26%
